Reference: paper PMC10384011, “m-Terphenylamines, Acting as Selective COX-1 Inhibitors, Block Microglia Inflammatory Response and Exert Neuroprotective Activity” (Molecules, 2023)

What was measured:
human COX-2 = target: T1, human COX-2 (Homo sapiens, UniProt P35354); assay: Cyclooxygenase colorimetric inhibitor screening assay, COX-2; format: biochemical; conditions: read-out: hCOX-2; for IC50: human COX-2, colorimetric kit; for inhibition at 50 µM: human COX-2, 50 µM;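 for all read-outs here: peroxidase activity of COX-2 followed colorimetrically through formation of oxidized TMPD at 590 nm, with arachidonic acid as substrate, compounds tested from 0.001 to 50 µM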
T1 construct: purchased Cayman Chemicals 701050
T1 sequence (P35354 18-604): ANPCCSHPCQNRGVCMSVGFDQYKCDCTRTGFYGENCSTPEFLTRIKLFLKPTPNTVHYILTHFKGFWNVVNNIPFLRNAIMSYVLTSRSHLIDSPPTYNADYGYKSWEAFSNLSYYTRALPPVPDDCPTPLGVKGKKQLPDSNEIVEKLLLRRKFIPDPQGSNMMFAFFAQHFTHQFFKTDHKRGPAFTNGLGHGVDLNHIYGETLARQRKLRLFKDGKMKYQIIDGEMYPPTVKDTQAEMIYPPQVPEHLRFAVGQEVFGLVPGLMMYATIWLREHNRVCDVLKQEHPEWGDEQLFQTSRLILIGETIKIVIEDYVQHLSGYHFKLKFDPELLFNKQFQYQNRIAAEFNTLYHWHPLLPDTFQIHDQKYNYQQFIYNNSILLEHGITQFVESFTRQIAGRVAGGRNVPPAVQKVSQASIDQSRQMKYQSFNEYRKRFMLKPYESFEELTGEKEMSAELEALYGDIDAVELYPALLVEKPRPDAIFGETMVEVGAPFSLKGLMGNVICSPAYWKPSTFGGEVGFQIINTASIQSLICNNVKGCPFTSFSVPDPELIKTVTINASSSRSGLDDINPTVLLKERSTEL
Description: (§1) Newly synthesized compounds were evaluated for their ability to inhibit ovine COX-1 or human COX-2 enzyme by measuring the extent (%) of enzyme activity inhibition at different concentrations (0.001, 0.01, 0.1, 1, 10, 50 μM). […] The assay kit measures the peroxidase component of COXs that is assayed colorimetrically by monitoring the appearance of oxidized N,N,N′,N′-tetramethyl-p-phenylenediamine (TMPD) a λ = 590 nm. […] Stock solutions of test compounds were dissolved in DMSO.

BV2 microglia cells = assay: ROS production (H2DCFDA) in LPS-treated BV2 microglia; format: cell-based; conditions: 3 μM, LPS 1 μg/mL, 24 h
Description: Activation of toll-like receptors (TLRs), particularly the TLR4 subtype, is closely associated with the production of reactive oxygen and nitrogen species that contribute to neuronal death in the CNS. In this connection, NADPH oxidase enzymes are the main ones responsible for ROS production induced by NF-κB nuclear translocation. For this reason, we decided to assess the ROS levels of BV2 microglia cells treated with LPS and the effect of our compounds under this toxicity protocol. To this end, the compounds, at different concentrations (3 μM of 3a, 3b, and 3d and 10 μM of 3c) were incubated with 1 μg/mL LPS for 24 h. After this period, ROS production was measured with the fluorescent probe H2DCFDA. Treatment with LPS increased by 1.75-fold the amount of ROS compared with control cells.
Cultures were seeded into flasks containing supplemented medium and kept at 37 °C in a humidified atmosphere of 5% CO2 and 95% air. For assays, BV-2 cells were subcultured in 48-well plates at a seeding density of 1 × 10^5 cells per well. Cells were treated with LPS (Sigma-Aldrich, Madrid, Spain) for 24 or 48 h before confluence in RPMI with 1% FBS.
To measure cellular ROS, we used the molecular probe 2′,7′-dichlorodihydrofluorescein diacetate (H2DCFDA). Glial cells were loaded with 5 µM H2DCFDA as it was previously described (Parada et al., 2015). Fluorescence was measured in a fluorescence microplate reader (FLUOstar Galaxy; BMG Labtech, Offenburg, Germany). Wavelengths of excitation and emission were 485 and 520 nm, respectively. The relative pixel intensity was measured in identical regions with (ImageJ 1.52a software, National Institutes of Health, Bethesda, MD, USA).

ovine COX-1 = target: T2, ovine COX-1 (Ovis aries, UniProt P05979); assay: Cyclooxygenase colorimetric inhibitor screening assay, COX-1; format: biochemical; conditions: for inhibition at 50 µM / IC50: read-out: oCOX-1; for inhibition at 50 µM: % Inhibition at 50 µM (converted); for IC50: ovine COX-1, colorimetric kit, triplicate;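 for all read-outs here: COX peroxidase activity read colorimetrically as oxidized TMPD at 590 nm, arachidonic acid as substrate, inhibitors tested at 0.001–50 µM from DMSO stocks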
T2 construct: purchased Cayman Chemicals 701050
T2 sequence (P05979 25-600): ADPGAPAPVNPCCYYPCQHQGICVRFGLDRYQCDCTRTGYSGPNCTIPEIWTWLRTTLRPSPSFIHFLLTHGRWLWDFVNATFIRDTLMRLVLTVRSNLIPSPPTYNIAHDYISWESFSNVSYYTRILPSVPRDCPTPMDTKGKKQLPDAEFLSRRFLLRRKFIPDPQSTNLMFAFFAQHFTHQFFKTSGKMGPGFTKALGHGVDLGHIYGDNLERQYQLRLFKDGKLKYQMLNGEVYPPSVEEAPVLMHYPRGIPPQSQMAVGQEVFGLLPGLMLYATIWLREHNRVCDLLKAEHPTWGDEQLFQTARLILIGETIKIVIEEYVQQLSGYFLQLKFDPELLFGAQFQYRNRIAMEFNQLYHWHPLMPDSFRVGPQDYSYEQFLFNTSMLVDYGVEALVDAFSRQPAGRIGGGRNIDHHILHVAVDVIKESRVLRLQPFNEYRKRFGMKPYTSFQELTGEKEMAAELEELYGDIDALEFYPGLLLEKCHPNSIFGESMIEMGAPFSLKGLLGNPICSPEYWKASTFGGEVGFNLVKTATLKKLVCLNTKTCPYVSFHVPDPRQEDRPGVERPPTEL
Description: as §1

| Molecule | IC50 (human COX-2) [µM] | inhibition at 50 µM (ovine COX-1; ovine COX-1, 50 µM) [%] | inhibition at 50 µM (human COX-2) [%] | melting point [°C] | IC50 (ovine COX-1) [µM] | also measured |
| --- | --- | --- | --- | --- | --- | --- |
| Nc1cc(-c2ccc(Cl)cc2)cc(-c2ccc(Cl)cc2)c1 [Compound 3d, 4,4″-Dichloro-5′-amino-m-terphenyl] | > 50 | 36 | – | – | – | ROS production induced by LPS (BV2 microglia cells): failed to decrease the levels of ROS |
| O=C(Nc1cc(-c2ccc(Br)cc2)cc(-c2ccc(Br)cc2)c1)NC1CCCC1 [Compound 4f, 1-([4,4″-Dibromo-m-terphenyl]-5′-yl)-3-cyclopentylurea] | – | 10 | 30 | 222 to 223 | – | COX-1 selectivity (in words) (ovine COX-1; ovine COX-1 vs human COX-2): did not show COX-1 selectivity |
| Nc1cc(-c2ccccc2)cc(-c2ccccc2)c1C(=O)O [Compound 2a, 6-Amino-2,4-diphenylbenzoic acid] | – | 32 | 3 | 162 to 163 | – | – |
| Nc1cc(-c2ccc(Cl)cc2)cc(-c2ccccc2)c1C(=O)O [Compound 2c, 6-Amino-2-phenyl-4-(4-chlorophenyl)benzoic acid] | – | – | 4 | 229 to 230 | > 50 | – |
| O=C(O)c1c(Nc2ccccc2)cc(-c2ccccc2)cc1-c1ccccc1 [Compound 2g, 6-Phenylamino-2,4-diphenylbenzoic acid] | – | 7 | 13 | – | – | – |
| CCOC(=O)c1c(N)cc(-c2ccccc2)cc1-c1ccccc1 [Compound 1a, ethyl 6-amino-2,4-diphenylbenzoate] | > 50 | – | – | – | > 50 | – |
| Cc1ccc(-c2cc(N)c(C(=O)O)c(-c3ccccc3)c2)cc1 [Compound 2b, 6-Amino-2-phenyl-4-(4-tolyl)benzoic acid] | – | 46 | 2 | – | – | – |
| COc1ccc(-c2cc(NC(=O)NC3CCCC3)cc(-c3ccccc3)c2)cc1 [Compound 4e, 1-([4-Methoxy-m-terphenyl]-5′-yl)-3-cyclopentylurea] | > 50 | – | – | 208 to 209 | > 50 | – |
| Nc1cc(-c2ccc(Cl)cc2)cc(-c2ccc(Cl)cc2)c1C(=O)O [Compound 2d, 6-Amino-2,4-di-(4-chlorophenyl)benzoic acid] | – | – | 13 | 178 to 179 | > 50 | – |
| COc1ccc(-c2cc(N)c(C(=O)O)c(-c3ccccc3)c2)cc1 [Compound 2e, 6-Amino-2-phenyl-4-(4-methoxyphenyl)benzoic acid] | – | – | 20 | – | > 50 | – |
| Nc1cc(-c2ccc(Br)cc2)cc(-c2ccc(Br)cc2)c1 [Compound 3f, 4,4″-Dibromo-5′-amino-m-terphenyl] | > 50 | – | – | 163 to 164 | > 50 | – |
| c1ccc(Nc2cc(-c3ccccc3)cc(-c3ccccc3)c2)cc1 [Compound 3g, 5′-Phenylamino-m-terphenyl] | > 50 | – | – | – | > 50 | – |
| COc1ccc(-c2noc(CC(=O)O)c2-c2ccc(OC)cc2)cc1 [Mofezolac, mofezolac, reference compound] | – | 100 | 42 | – | – | – |
| Cc1ccc(-c2cc(NC(=O)NC3CCCC3)cc(-c3ccccc3)c2)cc1 [Compound 4b, 1-([4-Methyl-m-terphenyl]-5′-yl)-3-cyclopentyl urea] | > 50 | – | – | 217 to 218 | > 50 | – |
| O=C(Nc1cc(-c2ccccc2)cc(-c2ccccc2)c1)NC1CCCC1 [Compound 4a, 1-([m-Terphenyl]-5′-yl)-3-cyclopentyl urea] | > 50 | – | – | – | > 50 | – |
| ethyl 6-amino-2-(4-methoxyphenyl)-2-phenylbenzoate [Compound 1e] | > 50 | – | – | – | – | oCOX-1; % Inhibition at 50 µM (ovine COX-1; ovine COX-1, 50 µM): NM (9) % |
| O=C(Nc1cc(-c2ccc(Cl)cc2)cc(-c2ccc(Cl)cc2)c1)NC1CCCC1 [Compound 4d, 1-([4,4″-Dichloro-m-terphenyl]-5′-yl)-3-cyclopentylurea] | > 50 | – | – | 239 to 240 | > 50 | – |
| O=C(Nc1cc(-c2ccccc2)cc(-c2ccc(Cl)cc2)c1)NC1CCCC1 [Compound 4c, 1-([4-Chloro-m-terphenyl]-5′-yl)-3-cyclopentylurea] | > 50 | – | – | 203 to 204 | > 50 | – |
| Nc1cc(-c2ccc(Br)cc2)cc(-c2ccc(Br)cc2)c1C(=O)O [Compound 2f, 6-Amino-2,4-di-(4-bromophenyl)benzoic acid] | – | 8 | 12 | 239 to 240 | – | – |
| CCOC(=O)c1c(NC(=O)NC2CCCCC2)cc(-c2ccccc2)cc1-c1ccc(OC)cc1 [Compound 5, Ethyl 6-(3′-cyclohexylureido)-2-(4-methoxyphenyl)-4-phenylbenzoate] | > 50 | – | – | – | > 50 | – |
